Data published in US20180057505A1, “BICYCLIC HETEROARYL COMPOUNDS USEFUL AS INHIBITORS OF THE PAR-2 SIGNALING PATHWAY” (VERTEX PHARMACEUTICALS INCORPORATED, priority 2015, published 2018).

How the values were obtained:
Type in all cases: cell-based
PAR2 (HT-29 cells) [1] = biological target: T1, PAR2 (HT-29 cells) (Homo sapiens, UniProt P55085); test: Ca FLIPR TETRA assay, ANTAGONIST mode, activator 3.1 U/mL trypsin; settings: HT-29 cells; activator 3.1 U/mL trypsin; Method A: maximal concentration of antagonist 0.1, 1 or 2 μM
T1 construct: host or cells: HT-29
T1 sequence (P55085 26-397): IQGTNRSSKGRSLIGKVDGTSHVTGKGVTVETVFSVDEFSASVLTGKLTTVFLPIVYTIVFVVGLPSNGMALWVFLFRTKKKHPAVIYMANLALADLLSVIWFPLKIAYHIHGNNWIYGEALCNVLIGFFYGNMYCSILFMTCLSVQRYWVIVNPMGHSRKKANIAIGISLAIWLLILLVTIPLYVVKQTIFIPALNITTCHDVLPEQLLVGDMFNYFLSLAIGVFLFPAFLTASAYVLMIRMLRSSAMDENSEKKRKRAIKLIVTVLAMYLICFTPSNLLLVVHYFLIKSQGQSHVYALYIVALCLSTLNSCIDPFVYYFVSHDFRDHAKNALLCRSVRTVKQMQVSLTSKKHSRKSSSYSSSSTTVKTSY
In short: (§1)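 HT-29 cells in 1% FBS/McCoy's overnight, loaded with FLIPR Calcium 5 dye (45 min 37 °C, 15 min r.t.); compounds added and read for intrinsic Ca2+ activation, then after 30 min r.t. stimulated with fixed activator: 8 μM SLIGKV, 0.6 μM UTP, 1 U/mL thrombin or 3.1 U/mL trypsin (final).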

[2] = tested on: UTP-stimulated Ca2+ response in HT-29 cells; test: Ca FLIPR TETRA assay, ANTAGONIST mode, activator 0.6 μM UTP; settings: HT-29 cells, activator 0.6 μM UTP
In short: as §1

PAR2 (HT-29 cells) [3] = biological target: T1, PAR2 (HT-29 cells); test: Ca FLIPR TETRA assay, ANTAGONIST mode, activator 8 μM SLIGKV; settings: HT-29 cells; activator 8 μM SLIGKV; Method A: maximal concentration of antagonist 0.1, 1 or 2 μM
In short: as §1

[4] = tested on: Thrombin-stimulated Ca2+ response in HT-29 cells; test: Ca FLIPR TETRA assay, ANTAGONIST mode, activator 1 U/mL Thrombin; settings: HT-29 cells, activator 1 U/mL Thrombin
In short: as §1

Structure (SMILES) | IC50 (PAR2 (HT-29 cells) [1]) | IC50 ([2]; Homo sapiens) | IC50 (PAR2 (HT-29 cells) [3]) | IC50 ([4]; Homo sapiens) | IC50 [2] | IC50 [4]
CC(C)(C)c1cc(-c2ccc(Cl)c(F)c2)nc2cc(C(=O)N3CCN(C(=O)[C@@H]4CCS(=O)(=O)N4)CC3(C)C)oc12 [Example I-472] | 20 nM | > 2000 nM | 33.9 nM | > 2000 nM | – | –
CC(C)(C)c1cc(-c2ccc(Cl)c(F)c2)nc2cc(C(=O)N3CCN(C(=O)[C@H]4CCS(=O)(=O)N4)CC3(C)C)oc12 [Example I-473] | 27.7 nM | > 2000 nM | 18 nM | > 2000 nM | – | –
CC(C)(C)c1cc(-c2ccc(Cl)cc2)nc2cc(C(=O)N3CCN(C(=O)[C@@H]4CCS(=O)(=O)N4)CC3(C)C)oc12 [Example I-474] | 53 nM | > 2000 nM | 39 nM | > 2000 nM | – | –
CC(C)(C)c1cc(-c2ccc(Cl)cc2)nc2cc(C(=O)N3CCN(C(=O)[C@H]4CCS(=O)(=O)N4)CC3(C)C)oc12 [Example I-475] | 34 nM | > 2000 nM | 26 nM | > 2000 nM | – | –
CC(C)(C)c1cc(-c2ccc(Cl)cc2)nc2cc(C(=O)N3CCN(c4cncc(C(=O)O)c4)CC3(C)C)oc12 [Example I-477] | 1.8 nM | > 500 nM | 0.7 nM | > 500 nM | – | –
CC(C)(C)c1cc(-c2ccc(Cl)cc2)nc2cc(C(=O)N3CCN(c4nc(C(=O)O)co4)CC3(C)C)oc12 [Example I-481] | 0.4 nM | > 1250 nM | 0.3 nM | > 1250 nM | – | –
CC(C)(C)c1cc(-c2ccc(Cl)cc2)nc2cc(C(=O)N3CCN(c4ncccn4)C(=O)C3(C)C)oc12 [Example I-483] | 2.8 nM | > 2000 nM | 3.6 nM | > 2000 nM | – | –
CC(C)(CN1CCN(C(=O)c2cc3nc(-c4ccc(Cl)c(F)c4)cc(C(C)(C)C)c3o2)C(C)(C)C1=O)C(=O)O [Example I-484] | 1.1 nM | > 1100 nM | 0.5 nM | > 1100 nM | – | –
CC1(C)CCC(c2cc(C(C)(C)C)c3oc(C(=O)N4CCNC(=O)CC4(C)C)cc3n2)CC1 [Example I-486] | 70 nM | – | 42 nM | – | > 2000 nM | > 2000 nM
Cc1ccc(N2CCN(C(=O)c3cc4nc(C5CCC(C)(C)CC5)cc(C(C)(C)C)c4o3)C(C)(C)C2=O)nc1C(=O)O [Example I-488] | 14 nM | > 2000 nM | 6.5 nM | > 2000 nM | – | –
CC1(C)CCC(c2cc(C(C)(C)C)c3oc(C(=O)N4CCC(=O)NCC4(C)C)cc3n2)CC1 [Example I-489] | 270 nM | > 2000 nM | 115 nM | > 2000 nM | – | –
CC(C)(C)c1cc(-c2ccc(Cl)cc2)nc2cc(C(=O)N3CCN(C(=O)CC4(C(=O)O)CCCC4)CC3(C)C)oc12 [Example I-493] | 0.4 nM | > 2000 nM | 0.4 nM | > 2000 nM | – | –
Cc1ccc(N2CCN(C(=O)c3cc4nc(-c5ccc(Cl)cc5)cc(C(C)(C)C)c4o3)C(C)(C)C2=O)nc1C(=O)O [Example I-495] | 15 nM | > 2000 nM | 13 nM | > 2000 nM | – | –
Cc1nc(N2CCN(C(=O)c3cc4nc(C5CCC(C)(C)CC5)cc(C(C)(C)C)c4o3)C(C)(C)C2)ccc1C(=O)O [Example I-496] | 0.6 nM | > 2000 nM | 0.4 nM | > 2000 nM | – | –
CC(C)(C)c1cc(-c2ccc(Cl)c(F)c2)nc2cc(C(=O)N3CCN(C(=O)CC4(C(=O)O)CCOCC4)CC3(C)C)oc12 [Example I-497] | 2.2 nM | > 2000 nM | 2.2 nM | > 2000 nM | – | –
CC(C)(C)c1cc(-c2ccc(Cl)cc2)nc2cc(C(=O)N3CCN(C(=O)CC4(C(=O)O)CCOCC4)CC3(C)C)oc12 [Example I-499] | 5 nM | > 2000 nM | 3.6 nM | > 2000 nM | – | –
CC(C)(C)c1cc(-c2ccc(Cl)c(F)c2)nc2cc(C(=O)N3CCN(C(=O)[C@@H]4CCCC[C@@H]4C(=O)O)CC3(C)C)oc12 [Example I-500] | 0.5 nM | > 2000 nM | 0.4 nM | > 2000 nM | – | –
CC1(C)CCC(c2cc(C(C)(C)C)c3oc(C(=O)N4CCN(c5nc(C(=O)O)ccc5F)CC4(C)C)cc3n2)CC1 [Example I-503] | 0.3 nM | – | 0.2 nM | – | > 2000 nM | > 2000 nM
Cn1cnnc1N1CCN(C(=O)c2cc3nc(-c4ccc(Cl)cc4)cc(C(C)(C)C)c3o2)C(C)(C)C1 [Example I-505] | 9.6 nM | > 2000 nM | 14 nM | > 2000 nM | – | –
CC(C)(C)c1cc(-c2ccc(Cl)c(F)c2)nc2cc(C(=O)N3CCN(C(=O)[C@@H]4CCCC[C@H]4C(=O)O)CC3(C)C)oc12 [Example I-506] | 21 nM | > 2000 nM | 23 nM | > 2000 nM | – | –
CC(C)(C)c1cc(-c2ccc(Cl)c(F)c2)nc2cc(C(=O)N3CCN(C(=O)NS(=O)(=O)c4ccccc4)CC3(C)C)oc12 [Example I-507] | 0.5 nM | > 2000 nM | 0.6 nM | > 2000 nM | – | –
CC(C)(C)c1cc(-c2ccc(Cl)c(F)c2)nc2cc(C(=O)N3CCN(S(C)(=O)=O)CC3(C)C)oc12 [Example I-508] | 10 nM | > 2000 nM | 8.1 nM | > 2000 nM | – | –
CC1(C)CCC(c2cc(C(C)(C)C)c3oc(C(=O)N4CCN(C(=O)[C@H]5CC[C@@](C)(C(=O)OCOP(=O)(O)O)CC5)CC4(C)C)cc3n2)CC1 [Example I-509] | 0.5 nM | > 2000 nM | 0.2 nM | > 2000 nM | – | –

Second part, the molecule after the results:

IC50 (PAR2 (HT-29 cells) [1]) | IC50 ([2]; Homo sapiens) | IC50 (PAR2 (HT-29 cells) [3]) | IC50 ([4]; Homo sapiens) | IC50 [2] | IC50 [4] | Structure (SMILES)
1.6 nM | > 500 nM | 0.7 nM | > 500 nM | – | – | Cc1nc(N2CCN(C(=O)c3cc4nc(-c5ccc(Cl)c(F)c5)cc(C(C)(C)C)c4o3)C(C)(C)C2)oc1C(=O)O [Example I-476]
4.1 nM | > 500 nM | 1.9 nM | > 500 nM | – | – | Cc1nc(N2CCN(C(=O)c3cc4nc(-c5ccc(Cl)cc5)cc(C(C)(C)C)c4o3)C(C)(C)C2)oc1C(=O)O [Example I-478]
0.3 nM | 1030 nM | 0.2 nM | 1500 nM | – | – | CC(C)(C)c1cc(-c2ccc(Cl)cc2)nc2cc(C(=O)N3CCN(c4cccc(C(=O)O)n4)CC3(C)C)oc12 [Example I-479]
0.2 nM | 1200 nM | 0.2 nM | > 2000 nM | – | – | COc1ccc(N2CCN(C(=O)c3cc4nc(-c5ccc(Cl)c(F)c5)cc(C(C)(C)C)c4o3)C(C)(C)C2)nc1C(=O)O [Example I-482]
18 nM | > 2000 nM | 16 nM | > 2000 nM | – | – | Cc1ccnc(N2CCN(C(=O)c3cc4nc(-c5ccc(Cl)c(F)c5)cc(C(C)(C)C)c4o3)C(C)(C)C2)c1C(=O)O [Example I-485]
0.3 nM | > 2000 nM | 0.2 nM | > 2000 nM | – | – | Cc1ccc(N2CCN(C(=O)c3cc4nc(-c5ccc(Cl)c(F)c5)cc(C(C)(C)C)c4o3)C(C)(C)C2)nc1C(=O)O [Example I-487]
3.9 nM | > 2000 nM | 3.1 nM | > 2000 nM | – | – | CC(C)(C)c1cc(-c2ccc(Cl)c(F)c2)nc2cc(C(=O)N3CCN(c4cc(C(=O)O)ncn4)CC3(C)C)oc12 [Example I-490]
230 nM | > 2000 nM | 190 nM | > 2000 nM | – | – | CC(C)(C)c1cc(-c2ccc(Cl)c(F)c2)nc2cc(C(=O)N3CCN(c4ccncc4C(=O)O)CC3(C)C)oc12 [Example I-491]
7.3 nM | > 2000 nM | 7.5 nM | > 2000 nM | – | – | Cc1cnc(N2CCN(C(=O)c3cc4nc(-c5ccc(Cl)c(F)c5)cc(C(C)(C)C)c4o3)C(C)(C)C2)c(C(=O)O)c1 [Example I-492]
0.1 nM | > 2000 nM | > 2000 nM | > 2000 nM | – | – | Cc1cc(C(=O)O)nc(N2CCN(C(=O)c3cc4nc(-c5ccc(Cl)c(F)c5)cc(C(C)(C)C)c4o3)C(C)(C)C2)c1 [Example I-494]
0.3 nM | > 2000 nM | 0.3 nM | > 2000 nM | – | – | COc1nc(N2CCN(C(=O)c3cc4nc(-c5ccc(Cl)c(F)c5)cc(C(C)(C)C)c4o3)C(C)(C)C2)ccc1C(=O)O [Example I-498]
0.1 nM | – | 0.1 nM | – | > 2000 nM | > 2000 nM | CC(C)(C)c1cc(-c2ccc(Cl)c(F)c2)nc2cc(C(=O)N3CCN(c4nc(C(=O)O)ccc4F)CC3(C)C)oc12 [Example I-501]
0.2 nM | – | 0.2 nM | – | > 2000 nM | > 2000 nM | CC(C)(C)c1cc(-c2ccc(Cl)cc2)nc2cc(C(=O)N3CCN(c4nc(C(=O)O)ccc4F)CC3(C)C)oc12 [Example I-502]
1.7 nM | > 2000 nM | 1.2 nM | > 2000 nM | – | – | Cc1cc(C(=O)N2CCN(C(=O)c3cc4nc(-c5ccc(Cl)c(F)c5)cc(C(C)(C)C)c4o3)C(C)(C)C2)[nH]n1 [Example I-504]
